Experimental data reported in patent publication US20070213505A1, “Solution Synthesis of Peptide Cell Growth Stimulators” (priority 2006, published 2007).
Peptide text beside a SMILES is read from it.

Legend:
CHO line = test: Effect of Gly-Lys-Gly on growth and productivity of a CHO line in chemically defined CHO medium; format: cell-based, Chinese Hamster; conditions: CHO medium supplemented at the same concentrations as in the SP2/0 test; results not shown
Excerpt: In a previous experiment, a proprietary chemically defined Chinese Hamster Ovary (CHO) medium was supplemented with both the Centocor and Bachem-made peptides at the same concentrations above.

[1] = system: transfectoma cell line which is an SP2/0 derived line engineered to produce an anti-cytokine monoclonal antibody (mAb); test: Effect of Gly-Lys-Gly on growth and productivity of a transfectoma cell line in MET1.5 shaker flask culture; format: cell-based; conditions: for viable cell density: unsupplemented control 2.0×10^6
Method: Two preparations of the tri-peptide, Gly-L-Lys-Gly, were compared for their effect on growth and productivity of a transfectoma cell line which is an SP2/0 derived line engineered to produce an anti-cytokine monoclonal antibody (mAb). The final lot of GKG prepared in Example V was compared to commercial prepared GKG purchased from Bachem (King of Prussia, Pa.).
Cells were cultured in a proprietary defined medium, MET1.5, supplemented with 7.0 mM glutamine, 10 g/L MHX, and 2.0 g/L sodium bicarbonate. The Centocor-made GKG peptide in quantities of 0.35 g/L, 0.70 g/L, and 1.40 g/L were added to 250 mL of MET 1.5 media. The GKG from Bachem was added to 250 mL of MET 1.5 media at concentrations of 0.38 g/L, 0.76g/L, and 1.5 g/L. The cells were cultured in 125 mL shaker flasks and were rotating at 125 RPM. The culture was also incubated at 37° C. in a humidified atmosphere with 5% CO2 and 95% air. The culture volume was 40 mL. Two control flasks and two flasks per peptide concentration were sampled at days zero, one, two, three, four, five, and six for viable cell density and antibody determination.
The cultures were inoculated at a density of 2×10^5 cells/mL and were passaged three times (split every three days). On the third passage they were incubated until the decline phase.
Viable cells and dead cells were calculated by trypan exclusion with the Cedex cell counter. The mAb concentrations were determined by immunoturbidity via the IMMAGE 800 nephelometer (Beckman, Coulter, Brea, Calif.). The effects of the Gly-Lys-Gly peptide on antibody secretion by a production cell line was gauged by calculating integral viable density (IVCC), and titer. IVCC was calculated by integrating the areas under the growth curves. Specific antibody productivity was calculated as the antibody production per day (titer) divided by IVCC.

## NCCCC[C@H](NC(=O)CN)C(=O)NCC(=O)O [Centocor-made peptide, Glycyl-L-Lysyl-Glycine] (H-Gly-Lys-Gly-OH)
CHO line
  effect on growth and productivity: minimal to no effect
[1]; 0.35 g/L peptide in MET1.5, mean of two samples
  viable cell density: 2.5×10^6 viable cells/mL
[1]; 0.7 g/L peptide in MET1.5
  enhancement of the product yield or viable cell density: No enhancement
[1]; 1.4 g/L peptide in MET1.5
  increase in titer (concentration of mAb): 21%
  viable cell density and percent viability increases: could not be observed

## Gly-L-Lys-Gly [Bachem-made-peptide]
CHO line
  effect on growth and productivity: minimal to no effect
[1]; 0.38 g/L peptide in MET1.5, mean of two samples
  viable cell density: 2.6×10^6 viable cells/mL
[1]; 0.76 g/L peptide in MET1.5, rose from 117 mg/L without supplement, mean of two samples
  titer: 137 mg/L
[1]; 1.5 g/L peptide in MET1.5
  increase in titer (concentration of mAb): 34%
  viable cell density and percent viability increases: could not be observed
